# Test results: patent publication US6677307B2, “TGF-α polypeptides, functional fragments and methods of use therefor” (Kaleidos Pharma, Inc., priority 1999, dated 2004)
# Read-outs that look alike come from different tables or passages of the source.
# Assays:
# [1] = test system: stem cells; assay: stimulation of cellular proliferation, 3H thymidine incorporation of stem cells; type: cell-based; conditions: loop peptides of human TGFα; compared to TGF-α 50 aa and 57 aa polypeptide; FIG. 2
# Description: Each of the three loop regions in human TGFα was investigated for TGFα-like biological activity, such as stimulation of cellular proliferation as measured by ^3H thymidine incorporation of stem cells. […] Accordingly, data from TGFα or TGF-α57 show what can be called “TGF-α activity” and that these are predictive of activity of the functional TGF-α peptide and similar functional TGF-α peptides embodied in the genus of formula I with or without the addition of a “tail” region of formula II.
# [2] = test system: human CD34 positive and CD38 negative cells; assay: liquid primary culture of human bone-marrow enriched CD34 cells; type: cell-based; conditions: positive control, 500 ng/ml
# Procedure: An additional experiment investigated TGF-α activity (using TGF-α57) on human bone-marrow enriched CD34 cells. FACS-sorted human CD34 positive and CD38 negative cells were cultured in liquid primary cultures in Iscove's modified Dulbecco's media with supplements. […] Stem Cell Factor (SCF) was used as a positive control (500 ng/ml) and provided a three-fold increase in CD34 positive cells. When a combination of SCF (500 ng/ml) and TGFα (10 ng/ml) was added, a synergistic 12-fold increase in CD34 positive cells was observed.
# [3] = acid and heat; background statement; cited from earlier work
# [4] = cited from earlier work
# [5] = test system: immune cells (T cell lineage), mast cells; assay: immune cells, mast cells and cytokines in vivo after CP; parameters: species or system mice; conditions: in vivo
# Description: The stimulated immune cells were phenotypically identified as CD4 positive T cells and double null CD4 negative CD8 negative T cell progenitors. […] The in vivo activity of TGFα (and the functional peptides of formula I, formula II, formula III, and formula IV) to stimulate early T cell progenitors in the release of TH-1 and TH-2 cytokines and this regulation of immune phenomena. The stimulation of select immune cells, in particular cells of a T cell lineage, was seen consistently in the mice who received CP and TGF-α57 in lymphoid tissue, Peyers Patches and the spleen. Further, recruitment of help via CD4 cells in some cases boosts immune system function in general.
# This is a parallel activity that is in addition to the gastrointestinal anti-inflammatory activity and prevention of mucositis of TGFα (and the functional peptides of formula I, formula II, formula III, and […]) described herein.
# [6] = test system: EGF receptor family (e.g., ErbB1 through 4); conditions: background statement; cited from earlier work
# [7] = test system: chronic inflammatory-like gastrointestinal symptoms; type: in vivo, non-human primate; parameters: wt.: unit not given here; conditions: for wt.: non-human primate, 300 μg/kg ip once, then 50 μg/kg S.C. 6 days
# Procedure: (§1) In addition, studies of TGF-α for the treatment of diarrhea in non-human primates was also performed. […] This weight gain was maintained at least for several weeks post treatment. In addition, the reduction of SEGs (see column 6, Table 1) neutrophils correlates with reduction in inflammation associated with neutrophil influx and concomitant pro-inflammatory cytokines.
# [8] = type: in vivo; conditions: non-human primate, 300 μg/kg ip once, then 50 μg/kg S.C. 6 days
# Procedure: as §1
# [9] = test system: mouse intestines; assay: histological examination of intestines of CP-treated mice; type: in vivo; conditions: CP treatment; 50 μg/kg; FIG. 4
# Procedure: The experiment procedure dosed those animals to be treated with TGFα 57 4 hours prior to challenge with CP. A single dose of CP was administered. Additional doses (as indicated) of TGFα 57 were made at 24 hours, 48 hours, 72 hours and 96 hours after the CP dose. All doses were made by IP injection. Controls were dosed with saline instead of either or both of CP and TGF-α57.
# The animals were sacrificed about 4 hours after the last TGF-α57 (or saline) dose. Key organs were removed and spleens were immediately weighed after a clean incision. All the relevant organs were placed in formalin, transported for histopathological analysis, mounted, sectioned, stained and observed. The results of this histological analysis of the spleens for hematopoietic effect and the GI tract (below) provided surprising and unexpected data of the effect of TGF-α57 activity.
# TGFα or a peptide from formula I, formula II, formula III, formula IV, formula V, or formula VI having TGFα activity or combinations thereof are also useful for treating mucositis associated intestinal bleeding, dyspepsia caused by with cytotoxic therapy and for improving the barrier function of the GI tract compromised by cytotoxic therapy. The in vivo experiment with seven groups of mice described above for hematopoietic effects noted in spleens also examined the GI tract of these treated mice. […] A single row of intestinal crypt is found at the base of the mucosa. These crypts that lie between adjacent villi are surrounded by the same lamina propria that form the villous cores. Both columnar absorptive cells and goblet cells cover the villous surfaces. The goblet cells contain apical clear vacuoles. […] Specifically, the villus was long and slender. Both absorptive cells and goblet cells were visible at the surface of the villi, and there was an abundant amount of goblet cells on the surface.
# A 160×magnification of the intestines of a CP-treated mouse, a normal mouse and a CP treated and TGFα57 treated mouse at the same doses as described above. […] The crypts were irregularly shaped and in had various heights. […] The crypts also appeared normal.
# Red cells were visible at the damaged surface indicating intestinal bleeding. […] Globlet cells appeared interspersed, necrotic and fewer in number than normal. […] Specifically, the epithelial cells appeared normal with extended brush borders. The nuclei were very densely stained and elongated.
# The histological data is summarized in FIG. 4 that measured average crypt height of the three groups of mice.
# An alcian blue staining method permitted differentiation of absorptive cells and goblet cells. Goblet cell mucus is stained a blue color while the absorptive cells remain less stained. […] In the normal intestine each villus extended from the luminal surface to the basal muscularis mucosal surface. Goblet cells were scattered and predominated in the base of the villus whereas columnar absorptive cells lined the luminal surface. […] The injured absorptive and goblet cells were degenerating at the tip of the villi and abundant secretory mucus material was stained in the luminal surface. In the CP/TGF-α mouse, there were an increased number of goblet cells scattered throughout the villi. The intestinal villi appeared normal with elongation. […] The luminal plasma membranes of the villi were well protected by TGF-α treatment. The number of goblet cells was counted on the average unit length of intestine.
substance,measurement,setting,value
"Loop A: loop peptide region of TGFα, amino acids 1-21 starting at the N terminus (VVSHFNDCPDSHTQFCFHGTC)",TGF-α biological activity (stimulation of cellular proliferation),[1],Only Loop C showed significant TGF-α activity
"Loop B: loop peptide region of TGFα, amino acids 16 to 32 (CFHGTCRFLVQEDKPAC)",TGF-α biological activity (stimulation of cellular proliferation),[1],Only Loop C showed significant TGF-α activity
"Loop C: loop peptide region of TGFα, amino acids 33 to 50; TGF-α mimetic peptide (VCHSGYVGARCEHADLLA)",TGF-α biological activity (stimulation of cellular proliferation),[1],significant TGF-α biological activity
"SCF: Stem Cell Factor, used as a positive control [reference compound]",increase in CD34 positive cells,[2],three-fold
"TGF-α: human transforming growth factor alpha, 50 amino acid polypeptide with three disulfide bonds, SEQ ID NO:1",stability,[3],acid and heat stable
same,estimated pKa of the lysine 29 ε amino,[4],10.4
same,IL-6 and MIP,[5],downregulating IL-6 and MIP
same,TNF-α receptors,[5],downregulating TNF-α receptors
same,mast cell degranulation and histamine release,[5],prevented mast cell degranulation and subsequent histamine release
same,neutrophil trafficking,[5],blocking neutrophil trafficking
same,binding affinity,[6],high affinity in the nanomolar range
same,stool consistency,"[7]; 300 μg/kg intraperitoneally once, then 50 μg/kg S.C. for 6 days",steady increase in stool consistency
same,wt.,[7]; Time 1,5.80
same,wt.,[7]; Time 2,6.33
same,wt.,[7]; Time 3,6.74
same,wt.,[7]; Time 4,8.21
same,wt.,[7]; Time 5,8.93
same,wt.,[7]; Time 6,9.42
same,weight,"[7]; through the treatment period, 300 μg/kg intraperitoneally once, then 50 μg/kg S.C. for 6 days",steady weight gain
same,CD4^+,[8]; Time 1,28.4%
same,CD8^+,[8]; Time 1,56.3%
same,Dual CD8^+ CD4^+,[8]; Time 1,6.7%
same,Seg,[8]; Time 1,76%
same,Seg,[8]; Time 2,69%
same,CD4^+,[8]; Time 3,36.7%
same,CD8^+,[8]; Time 3,53.1%
same,Dual CD8^+ CD4^+,[8]; Time 3,6.3%
same,Seg,[8]; Time 3,61%
same,CD4^+,[8]; Time 4,31.3%
same,CD8^+,[8]; Time 4,54.0%
same,Dual CD8^+ CD4^+,[8]; Time 4,9.1%
same,Seg,[8]; Time 4,48%
same,CD4^+,[8]; Time 5,33.4%
same,CD8^+,[8]; Time 5,49.8%
same,Dual CD8^+ CD4^+,[8]; Time 5,8.1%
same,Seg,[8]; Time 5,46%
same,CD4^+,[8]; Time 6,35.1%
same,CD8^+,[8]; Time 6,50.3%
same,Dual CD8^+ CD4^+,[8]; Time 6,7.7%
same,Seg,[8]; Time 6,56%
same,average crypt height,[9],more-than-restore crypt height loss
